Earlier results, collected in US20120195875A1, “DETECTION OF IMMUNE MODULATION RESULTING FROM REDUCED PROTEIN PHOSPHATASE 2A ACTIVITY” (CEDARS-SINAI MEDICAL CENTER, priority 2011, published 2012).

Columns and labels:
[1] = tested on: murine peritoneal macrophages

Compound: COC[C@@H]([C@H](O)[C@H](O)C(=O)NCC[C@H](C)c1nc(/C=C/C[C@@H]2O[C@]3(C[C@@H](O)[C@@H]2C)O[C@H]([C@H](C[C@H](O)[C@H](C)[C@H](O)[C@H](C)/C=C(C)/C(C)=C/C=C/C(C)=C\C#N)OC)[C@H](OP(=O)(O)O)C3(C)C)co1)N(C)C [calyculin A]
- LPS-induced TNF-α, IL-1β, IFN-β, IP-10, IRF-1, and TNFR-2 release (macrophages): inhibit
- LPS-induced macrophage responses (macrophages): inhibits

Compound: C=C1[C@@H](O)[C@@H]2O[C@]3(CC[C@H](/C=C/[C@@H](C)[C@@H]4CC(C)=C[C@@]5(O[C@H](C[C@@](C)(O)C(=O)O)CC[C@H]5O)O4)O3)CC[C@H]2O[C@@H]1[C@@H](O)C[C@H](C)[C@H]1O[C@@]2(CCCCO2)CC[C@H]1C [okadaic acid]
- LPS tolerance ([1]; 1 h before the first or 16 h before the second LPS stimulation): reversed LPS tolerance
- p38 phosphorylation ([1]; in response to primary LPS stimulation): inhibition
- phosphorylation of ERK-1/ERK-2, JNK/SAPK and p38/SAPK-2 ([1]; in response to second LPS stimulation): restored and prolonged
